The subject of the assay is Bacillus polymyxa BN-109. The experiment in a line: Sensitivity of producing strain BN-109 towards antibiotics (disc method). The assay is classed as cell-based. An excerpt:
14. Sensitivity towards antibiotics (disc method):
For the molecule `CC[C@H]1OC(=O)[C@H](C)[C@@H](O[C@H]2C[C@@](C)(OC)[C@@H](O)[C@H](C)O2)[C@H](C)[C@@H](O[C@@H]2O[C@H](C)C[C@H](N(C)C)[C@H]2O)[C@](C)(O)C[C@@H](C)C(=O)[C@H](C)[C@@H](O)[C@]1(C)O` [erythromycin], the Sensitivity towards antibiotics result is on record as “Sensitive”. As to `NC[C@H]1O[C@H](O[C@H]2[C@H](O[C@@H]3O[C@H](CO)[C@@H](O)[C@H]3O)[C@@H](O)[C@H](N)C[C@@H]2N)[C@H](N)[C@@H](O)[C@@H]1O` [vistamycin], the Sensitivity towards antibiotics entry is reported as “Sensitive”.

With `[H]/N=C(/N)N[C@H]1[C@H](O)[C@@H](O)[C@H](O[C@@H]2O[C@@H](C)[C@](O)(C=O)[C@H]2O[C@@H]2O[C@@H](CO)[C@H](O)[C@@H](O)[C@@H]2NC)[C@@H](N/C(N)=N\[H])[C@@H]1O` [Streptomycin], the Sensitivity towards antibiotics entry was “Sensitive”.

On to colistin, for which the Sensitivity towards antibiotics entry is on record as “Resistant”.

On to `CCn1cc(C(=O)O)c(=O)c2ccc(C)nc21` [nalidixic acid], for which the Sensitivity towards antibiotics entry is given as “Sensitive”.

As to `O=C(Cc1cccs1)N[C@@H]1C(=O)N2C(C(=O)[O-])=C(C[n+]3ccccc3)CS[C@H]12` [cephalolidin], the Sensitivity towards antibiotics entry is “Sensitive”.

Polymyxin B: the Sensitivity towards antibiotics result was “Resistant”. On to `NC[C@H]1O[C@H](O[C@H]2[C@H](O)[C@@H](O[C@H]3O[C@H](CO)[C@@H](O)[C@H](N)[C@H]3O)[C@H](N)C[C@@H]2N)[C@H](O)[C@@H](O)[C@@H]1O` [kanamycin], for which the Sensitivity towards antibiotics result is on record as “Sensitive”. In the case of `CN(C)C1C(=O)C(C(N)=O)=C(O)C2(O)C(=O)C3=C(O)c4c(O)cccc4C(C)(O)C3CC12` (centres unmarked) [tetracyclin], the Sensitivity towards antibiotics result is recorded as “Sensitive”. As to `CC1(C)S[C@@H]2[C@H](NC(=O)Cc3ccccc3)C(=O)N2[C@H]1C(=O)O` [penicillin], the Sensitivity towards antibiotics entry is on record as “Sensitive”. As for `O=C(N[C@H](CO)[C@H](O)c1ccc([N+](=O)[O-])cc1)C(Cl)Cl` [chloramphenical], the Sensitivity towards antibiotics result is reported as “Sensitive”.

(Values after patent publication US3940479A (Meiji Seika Kaisha, Ltd., priority 1974, dated 1976).)
